Reference: paper PMC8353398 (Frontiers in Pharmacology, 2021)

Columns and labels:
[1] = tested on: spontaneously hypertensive rats (SHR); test: Invasive hemodynamics and echocardiography after 6-week infusion in SHR rats; conditions: for Diastolic AP / Mean AP / Systolic AP: pressure catheter
Experimental: Male spontaneously hypertensive rats (SHR) and normotensive Wistar-Kyoto (WKY) rats were purchased from Charles River Laboratories (Kingston, ON, Canada) and maintained in a temperature-controlled room with a 12 h light/dark cycle at the animal facility of the Université de Sherbrooke. All animals were randomized with unique identification number into the different groups tested to maintain experimenter blinding. The study included six distinct SHR experimental groups (Table 1). Three groups received a standard rat chow diet containing 0.3% of NaCl (Charles River, ON, Canada) while the other three groups were fed a rat diet containing 8% of NaCl for 6 weeks (Research Diets, NJ, United States). Once a week, urine output and water intake were measured over 24 h using metabolic cages following 3 days of acclimatization. After 6 weeks of different salt intake regimens, the rats were anesthetized with 2% isoflurane for echocardiographic and hemodynamic measurements. Subsequently, blood samples were collected into tubes containing K2-EDTA and centrifuged at 2000 g for 10 min at 4°C before storing the plasma at −80°C. Plasma and urinary concentrations of sodium were determined by a vitros 750 XRC analyser (Johnson-Johnson Clinical Diagnostics; Rochester, NY). OCT-embedded sections of heart (7 µm) were generated and collagen fibers visualized by Masson’s trichrome staining. Immunohistochemistry stained slides were captured by an automated Hamamatsu Nanozoomer 2.0RS slide scanner (Hamamatsu Photonics). Heart and kidneys were also harvested, snap frozen in liquid nitrogen and stored at −80°C for mRNA expression analysis. All animal procedures were approved by our institutional ethical committee (protocol #2017–2115), in compliance with the policies and directives of the Canadian Council on Animal Care and with the ARRIVE guidelines.
Briefly, 2-chlorotrityl chloride resin (2-CTC, 120 mg) was loaded with Fmoc-L-Phe-OH (0.85 mmol/g). Fmoc protecting group was removed by treating the resin with a 20% piperidine solution. The coupling steps were carried out using [hexafluorophosphate of O-(7-azabenzotriazol-1-yl)-1,1,3,3-tetramethyluronium] (HATU, 5 equiv), amino acid (5 equiv) and DIPEA (5 equiv). The final peptide was cleaved from resin using a cocktail of trifluoroacetic acid (TFA)/triisopropylsilane (TIPS)/ethanedithiol (EDT)/water (92.5/2.5/2.5/2.5) and purified by preparative HPLC (ACE5 C18 column 250 × 21.2 mm, 5 μm spherical particle size). […] Finally, peptide was purified by preparative HPLC.
Transthoracic echocardiography was performed under isoflurane anesthesia (2%; […]; Baxter) with the Vevo 3,100 ultrasound apparatus using a MX250 transducer (FUJIFILM VisualSonics, ON, Canada). A short axis view of the left ventricle (LV) was obtained at the level of the papillary muscle and the M-mode tracing was recorded. LV End-Diastolic and End-Systolic Diameters (LVEDD; LVESD) were measured in order to calculate the fractional shortening (FS). Stroke volume was next calculated in order to assess Cardiac Output (CO) and Cardiac Index (CI). Pulse propagation velocity (PPV) was determined by ultrasound measurements of the abdominal aorta using EKV-image acquisition and analyzed with Vevo-Vasc software (FUJIFILM VisualSonics, ON, Canada). For invasive hemodynamic measurements, rats were intubated under isoflurane anesthesia (2%; […]; Baxter, IL, United States) and ventilated (SAR-1000, CWE). The right carotid artery was then cannulated with a pressure catheter (1.9F, Transonic, NY, United States) and advanced into the LV to record end-systolic and end-diastolic pressures.

[2] = tested on: adult male Sprague-Dawley rats; conditions: cecal-ligation puncture sepsis, 10 nmol/kg/hr, ref Coquerel et al., 2017; cited from earlier work
Text: The final peptide was cleaved fr ...

[3] = tested on: spontaneously hypertensive rats (SHR); test: Quantitative RT-PCR of pro-fibrotic and RAAS genes in heart and kidneys of treated SHR rats; assay type: in vivo, rat; conditions: high-salt diet, 10 nmol/kg/hr 6-week infusion, qRT-PCR, Rpl30 reporter
Experimental: Total RNA was extracted from heart and kidneys using RNeasy Mini kits (Qiagen) according to the manufacturer’s protocol. iScript Reverse Transcription Supermix (Bio-Rad) was used to prepare cDNA from 1 µg of total RNA in 20 µL. Real-time PCR was performed on technical duplicates with cDNA diluted 30x in nuclease-free water and using SsoAdvanced™ Universal SYBR® Green Supermix (Bio-Rad) in a Mastercycler® ep RealPlex (Eppendorf). The Ribosomal protein L30 (Rpl30) of heart or kidney was used as a reporter gene and fold changes were obtained using the 2(-ΔΔCt) method ([Livak and Schmittgen, 2001]). Data were then normalized to SHR rats receiving a standard chow diet containing 0.3% of NaCl.

rACE2 = molecular target: T1, rACE2 (Rattus norvegicus, UniProt Q5EGZ1); test: Peptide stability, cleavage assay with purified rat ACE2; assay type: in vitro ADME; conditions: purified rat ACE2 (final around 50 nM), 5 µL of 1 mM peptide in about 105 µL; 100 mM Tris-HCl pH 7.4, 100 mM NaCl, 10 µM ZnCl2; 37°C, 300 rpm; sampled 5-120 min; UPLC-MS SIM; repeated 3-5 times
T1 construct: purchased Sino Biological (Beijing, China)
T1 sequence (Q5EGZ1 18-805): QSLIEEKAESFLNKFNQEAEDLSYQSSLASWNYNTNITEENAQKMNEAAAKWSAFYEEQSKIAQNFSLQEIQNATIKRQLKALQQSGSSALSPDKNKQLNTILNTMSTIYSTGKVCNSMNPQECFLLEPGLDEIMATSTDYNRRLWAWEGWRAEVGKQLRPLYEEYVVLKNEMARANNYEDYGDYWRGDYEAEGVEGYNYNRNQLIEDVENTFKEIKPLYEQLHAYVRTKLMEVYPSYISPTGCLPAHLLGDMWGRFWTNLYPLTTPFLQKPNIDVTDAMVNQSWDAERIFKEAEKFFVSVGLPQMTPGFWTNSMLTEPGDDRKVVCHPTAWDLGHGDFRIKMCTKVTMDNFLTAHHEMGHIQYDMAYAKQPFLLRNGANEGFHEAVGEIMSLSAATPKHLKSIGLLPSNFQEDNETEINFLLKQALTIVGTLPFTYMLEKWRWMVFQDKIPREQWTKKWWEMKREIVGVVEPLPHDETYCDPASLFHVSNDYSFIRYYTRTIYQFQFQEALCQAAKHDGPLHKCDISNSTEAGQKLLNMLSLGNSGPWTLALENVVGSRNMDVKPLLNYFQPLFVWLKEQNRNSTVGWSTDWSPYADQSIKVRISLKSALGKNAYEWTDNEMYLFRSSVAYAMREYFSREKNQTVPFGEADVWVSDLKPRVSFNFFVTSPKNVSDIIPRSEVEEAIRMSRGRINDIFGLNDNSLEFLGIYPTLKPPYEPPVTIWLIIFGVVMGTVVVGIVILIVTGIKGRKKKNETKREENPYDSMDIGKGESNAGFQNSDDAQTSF
Experimental: (§1) Rat enzymes rACE2 and rNEP were purchased from Sino Biological (Beijing, China) while rACE was obtained from EMD Millipore (Burlington, MA, United States). Enzymes were dissolved in milli-Q water (at 1 μM for rACE2/rNEP and 1.65 μM for rACE), aliquoted and stored at -80°C, as recommended by suppliers. […] Before adding the enzyme, the blank sample (t = 0 min) was prepared by removing 10 μL of this mixture and quenched with 10 μL of EDTA 0.5 M. To initiate the enzymatic reaction, 5 μL of enzyme (1 μM or 1.65 μM) was added to the mixture (final enzyme concentration around 50 nM or 82 nM). This mixture was kept in an incubator at 37°C equipped with an orbital shaker (300 rpm). Ten μL was sampled at 5, 10, 20, 60, and 120 min from this mixture, and quenched with 10 μL EDTA 0.5 M (prepared in milli-Q water and filtered) to inactivate the enzyme. […] First analyses (t = 0 min, t = 120 min) scanned m/z from 300-1200 to evaluate if peptides are cleaved and peptide fragments will be detected. After identifying the m/z of peptides and fragments, peptides were quantified using single ion mode (SIM). […] Angiotensin II was used as reference substrate in the assay with rACE2 and rNEP and angiotensin I was used as reference substrate in the assay with rACE. Experiments were repeated 3-5 times.

rNEP = molecular target: T2, rNEP (Rattus norvegicus, UniProt P07861); test: Peptide stability, cleavage assay with purified rat neprilysin; assay type: in vitro ADME; conditions: purified rat NEP (final around 50 nM), 5 µL of 1 mM peptide in about 105 µL; 100 mM Tris-HCl pH 7.4, 100 mM NaCl, 10 µM ZnCl2; 37°C, 300 rpm; sampled 5-120 min; UPLC-MS SIM; repeated 3-5 times
T2 construct: purchased Sino Biological (Beijing, China)
T2 sequence (P07861 1-750): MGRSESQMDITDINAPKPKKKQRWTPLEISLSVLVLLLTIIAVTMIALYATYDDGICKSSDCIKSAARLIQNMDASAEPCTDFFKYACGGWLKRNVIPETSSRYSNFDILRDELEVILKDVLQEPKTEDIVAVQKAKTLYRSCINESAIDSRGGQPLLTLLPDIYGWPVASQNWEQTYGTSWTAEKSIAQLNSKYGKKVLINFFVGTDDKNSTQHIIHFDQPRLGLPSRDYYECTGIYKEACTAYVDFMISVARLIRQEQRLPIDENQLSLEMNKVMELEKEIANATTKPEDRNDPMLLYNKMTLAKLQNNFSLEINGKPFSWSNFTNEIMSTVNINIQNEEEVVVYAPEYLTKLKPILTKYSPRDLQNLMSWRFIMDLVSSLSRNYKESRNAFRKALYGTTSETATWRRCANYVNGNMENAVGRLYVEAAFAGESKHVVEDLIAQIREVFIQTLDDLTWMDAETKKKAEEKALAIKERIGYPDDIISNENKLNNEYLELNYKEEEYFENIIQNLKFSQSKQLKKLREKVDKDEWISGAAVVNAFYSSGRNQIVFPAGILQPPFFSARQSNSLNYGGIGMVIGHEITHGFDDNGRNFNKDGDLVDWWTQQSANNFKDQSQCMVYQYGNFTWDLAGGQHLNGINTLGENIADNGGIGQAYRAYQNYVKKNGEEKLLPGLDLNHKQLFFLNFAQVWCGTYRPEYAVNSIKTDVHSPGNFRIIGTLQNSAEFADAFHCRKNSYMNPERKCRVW
Experimental: as §1

rACE = test: Peptide stability, cleavage assay with purified rat ACE; assay type: in vitro ADME; conditions: purified rat ACE (final around 82 nM), 5 µL of 1 mM peptide in about 105 µL; 100 mM Tris-HCl pH 7.4, 100 mM NaCl, 10 µM ZnCl2; 37°C, 300 rpm; sampled 5-120 min; UPLC-MS SIM; repeated 3-5 times
Experimental: as §1

[4] = SHR, high-salt diet (8% NaCl), 10 nmol/kg/hr s.c. infusion 6 weeks, mean ± SEM, n = 6
[5] = SHR, high-salt diet, 10 nmol/kg/hr s.c. infusion 6 weeks, echocardiography, mean ± SEM, n = 6
[6] = SHR, normal-salt diet (0.3% NaCl), 10 nmol/kg/hr s.c. infusion 6 weeks, mean ± SEM, n = 5
[7] = SHR, normal-salt diet, 10 nmol/kg/hr s.c. infusion 6 weeks, echocardiography, mean ± SEM, n = 5

In the case of `CSCC[C@H](NC(=O)[C@@H]1CCCN1C(=O)CNC(=O)[C@H](CCCCN)NC(=O)[C@H](Cc1cnc[nH]1)NC(=O)[C@H](CO)NC(=O)[C@H](CC(C)C)NC(=O)[C@H](CCCNC(=N)N)NC(=O)[C@@H]1CCCN1C(=O)[C@H](CCCNC(=N)N)NC(=O)[C@@H]1CCC(=O)N1)C(=O)N1CCC[C@H]1C(=O)N[C@@H](Cc1ccccc1)C(=O)O` [Ape13, [Pyr^1]-Apelin-13], the “Effect on cardiovascular damage caused by hypertension per se” value ([1]; SHR on normal-salt intake compared to normotensive WKY, chronic treatment 6 weeks) is reported as “does not prevent or reverse”, the “Effect on hypertension induced by a high-salt diet” value ([1]; SHR, high-salt diet (8% NaCl), 10 nmol/kg/hr continuous 6-week infusion) is reported as “no significant effect” and the Weight [1, 4] is reported as 339 ± 10 g. For the same compound, the “Diastolic AP” value [1, 4] was 131 ± 17 mmHg, the “Mean AP” value [1, 4] was 152 ± 19 mmHg and the “Systolic AP” value [1, 4] was 194 ± 23 mmHg. The “AWTS (anterior wall thickness during systole)” value [1, 5] was 2.4 ± 0.1 mm, the “FS (fractional shortening)” value [1, 5] was 37.6 ± 3.3% and the “HR (heart rate)” value [1, 5] was 348 ± 12 bpm. The “LVEDD (left ventricular end diastolic diameter)” value [1, 5] was 7.2 ± 0.1 mm, the “LVESD (left ventricular end systolic diameter)” value [1, 5] was 4.5 ± 0.3 mm and the “PWTS (posterior wall thickness during systole)” value [1, 5] was 2.6 ± 0.1 mm. The Weight [1, 6] was 321 ± 5 g, the “Diastolic AP” value [1, 6] was 125 ± 12 mmHg and the “Mean AP” value [1, 6] was 143 ± 14 mmHg. For the same compound, the “Systolic AP” value [1, 6] was 179 ± 19 mmHg, the “APPV (aortic pulse propagation velocity)” value [1, 7] was 4.5 ± 0.4 m/s and the “AWTS (anterior wall thickness during systole)” value [1, 7] was 2.3 ± 0.1 mm. The “FS (fractional shortening)” value [1, 7] was 39.8 ± 1.1%, the “HR (heart rate)” value [1, 7] was 372 ± 4 bpm and the “LVEDD (left ventricular end diastolic diameter)” value [1, 7] was 6.3 ± 0.4 mm. For the same compound, the “LVESD (left ventricular end systolic diameter)” value [1, 7] was 3.8 ± 0.3 mm, the “PWTS (posterior wall thickness during systole)” value [1, 7] was 2.3 ± 0.1 mm and the Survival [2] was “improved the survival”. The “Expression of pro-fibrotic Col1a, Acta1 and Tgfb2 genes in kidneys” value [3] was “only reduced the Tgfb2 mRNA level”, the “Cleavage by ACE2 within 2 h” value (rACE2) was “rapidly and fully hydrolyzed” and the “Cleavage by neprilysin within 2 h” value (rNEP) was “rapidly and fully hydrolyzed”. The “Cleavage by ACE within 2 h” value (rACE) was “only partially”.
